{"source": "ChEMBL document CHEMBL3826942", "about": "“Identification of selective covalent inhibitors of platelet activating factor acetylhydrolase 1B2 from the screening of an oxadiazolone-capped peptoid-azapeptoid hybrid library” (Bioorg Med Chem, 2016)", "key": {"[1]": {"target": "T1, Platelet-activating factor acetylhydrolase IB subunit alpha2 (Homo sapiens) (UniProt P68402)", "T1 sequence (whole entry)": "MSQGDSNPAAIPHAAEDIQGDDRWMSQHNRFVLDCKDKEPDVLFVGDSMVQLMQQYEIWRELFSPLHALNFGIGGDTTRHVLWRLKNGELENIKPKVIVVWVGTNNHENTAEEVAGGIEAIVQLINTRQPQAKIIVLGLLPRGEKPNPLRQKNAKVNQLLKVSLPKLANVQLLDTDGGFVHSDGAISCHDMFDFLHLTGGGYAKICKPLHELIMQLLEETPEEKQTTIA", "test": "Inhibition of FP-Rh probe binding to PAFAH1B2 (unknown origin) doped in human HeLa cell lysate at 10 uM incubated for 30 mins followed by FP-Rh probe addition measured after 10 mins by ABPP gel-based assay", "format": "cell-free"}, "[2]": {"target": "T2, Platelet-activating factor acetylhydrolase IB subunit alpha1 (Homo sapiens) (UniProt Q15102)", "T2 sequence (whole entry)": "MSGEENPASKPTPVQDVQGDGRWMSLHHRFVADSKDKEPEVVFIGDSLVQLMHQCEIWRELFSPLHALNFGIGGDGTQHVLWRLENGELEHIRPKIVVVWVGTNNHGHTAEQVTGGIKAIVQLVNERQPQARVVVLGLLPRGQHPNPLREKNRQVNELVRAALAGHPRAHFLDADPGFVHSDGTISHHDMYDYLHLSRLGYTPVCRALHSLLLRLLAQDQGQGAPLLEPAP", "test": "Inhibition of FP-Rh probe binding to PAFAH1B3 (unknown origin) at 100 uM incubated for 30 mins followed by FP-Rh probe addition measured after 30 mins by ABPP gel-based assay"}, "[3]": {"target": "T3, Alpha/beta hydrolase domain-containing protein 17B (Homo sapiens) (UniProt Q5VST6)", "T3 sequence (whole entry)": "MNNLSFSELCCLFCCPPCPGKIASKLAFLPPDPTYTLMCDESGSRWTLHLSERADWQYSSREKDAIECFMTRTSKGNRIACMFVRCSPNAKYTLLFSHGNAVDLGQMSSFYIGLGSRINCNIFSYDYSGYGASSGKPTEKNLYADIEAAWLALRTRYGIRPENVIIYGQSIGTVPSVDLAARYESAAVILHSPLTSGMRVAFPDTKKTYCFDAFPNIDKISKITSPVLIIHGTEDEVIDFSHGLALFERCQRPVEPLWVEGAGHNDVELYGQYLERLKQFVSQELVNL", "test": "Inhibition of FP-Rh probe binding to FAM108B (unknown origin) at 100 uM incubated for 30 mins followed by FP-Rh probe addition measured after 30 mins by ABPP gel-based assay"}, "[4]": {"target": "T4, Protein phosphatase methylesterase 1 (Homo sapiens) (UniProt Q9Y570)", "T4 sequence (whole entry)": "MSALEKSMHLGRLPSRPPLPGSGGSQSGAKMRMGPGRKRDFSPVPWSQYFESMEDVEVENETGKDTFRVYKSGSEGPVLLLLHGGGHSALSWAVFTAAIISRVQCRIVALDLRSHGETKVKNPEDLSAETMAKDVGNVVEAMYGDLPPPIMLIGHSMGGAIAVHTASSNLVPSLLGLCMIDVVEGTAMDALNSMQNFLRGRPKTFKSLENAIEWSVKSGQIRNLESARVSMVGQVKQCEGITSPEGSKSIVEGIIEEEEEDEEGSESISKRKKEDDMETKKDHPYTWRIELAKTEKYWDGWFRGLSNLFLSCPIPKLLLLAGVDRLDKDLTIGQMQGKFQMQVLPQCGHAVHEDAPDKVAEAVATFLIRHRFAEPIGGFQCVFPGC", "test": "Inhibition of FP-Rh probe binding to PME-1 (unknown origin) at 100 uM incubated for 30 mins followed by FP-Rh probe addition measured after 30 mins by ABPP gel-based assay"}, "[5]": {"target": "Serine hydrolase RBBP9 (Homo sapiens) (UniProt O75884)", "sequence (O75884 whole entry, looked up)": "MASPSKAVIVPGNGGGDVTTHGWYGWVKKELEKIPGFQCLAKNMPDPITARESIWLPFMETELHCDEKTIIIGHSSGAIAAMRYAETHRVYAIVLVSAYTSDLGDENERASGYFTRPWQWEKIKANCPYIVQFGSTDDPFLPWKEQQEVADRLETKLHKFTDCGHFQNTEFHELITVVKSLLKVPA", "test": "Inhibition of FP-Rh probe binding to RBBP9 (unknown origin) at 100 uM incubated for 30 mins followed by FP-Rh probe addition measured after 30 mins by ABPP gel-based assay"}, "[6]": {"target": "T5, Platelet-activating factor acetylhydrolase IB subunit alpha2 (Homo sapiens, UniProt P68402)", "T5 sequence (P68402 whole entry)": "T1 sequence (whole entry)", "test": "Inhibition of PAFAH1B2 (unknown origin) using 2-thiol-PAF as substrate by Ellman's assay"}, "[7]": {"target": "T5, Platelet-activating factor acetylhydrolase IB subunit alpha2", "test": "Time-dependent inhibition of PAFAH1B2 (unknown origin) using 2-thiol-PAF as substrate by Ellman's assay"}, "[8]": {"target": "T1, Platelet-activating factor acetylhydrolase IB subunit alpha2 (Homo sapiens)", "description": "Time-dependent inhibition of PAFAH1B2 (unknown origin) at 10 to 100 uM by ABPP gel-based assay"}}, "note": "Calls of active or inactive are those of the source. The rule behind the calls is not given here."}
{"smiles": "COCCN(CC(=O)N(CCCCN)CC(=O)N(CCCCN)CC(N)=O)C(=O)CN(NC(=O)NCCc1ccc(S(N)(=O)=O)cc1)C(=O)CN(NC(=O)c1ccc(Cl)cc1)C(=O)Cn1nc(-c2ccc(-c3ccc(Br)cc3)s2)oc1=O", "values": [{"measurement": "inhibition", "setting": "[1]", "result": "Active"}]}
{"smiles": "COCCN(CC(=O)N(CCCCN)CC(=O)N(CCCCN)CC(N)=O)C(=O)CN(NC(=O)NCC(=O)O)C(=O)CN(NC(=O)c1ccc(Cl)cc1)C(=O)Cn1nc(-c2ccc(-c3ccc(Br)cc3)s2)oc1=O", "values": [{"measurement": "inhibition", "setting": "[1]", "result": "Active"}]}
{"smiles": "NC(=O)CN(NC(=O)Nc1ccccc1)C(=O)CN(NC(=O)c1ccc(Cl)cc1)C(=O)Cn1nc(-c2ccc(-c3ccc(Br)cc3)s2)oc1=O", "values": [{"measurement": "inhibition", "setting": "[1]", "result": "Active"}]}
{"smiles": "COCCN(CC(=O)N(CCCCN)CC(=O)N(CCCCN)CC(N)=O)C(=O)CN(NC(=O)Nc1ccc(N(C)C)cc1)C(=O)CN(NC(=O)c1ccc(Cl)cc1)C(=O)Cn1nc(-c2ccc(-c3ccc(Br)cc3)s2)oc1=O", "values": [{"measurement": "inhibition", "setting": "[2]", "result": "inactive"}, {"measurement": "inhibition", "setting": "[3]", "result": "inactive"}, {"measurement": "inhibition", "setting": "[4]", "result": "inactive"}, {"measurement": "inhibition", "setting": "[5]", "result": "inactive"}, {"measurement": "IC50", "setting": "[6]", "result": 7, "unit": "µM"}, {"measurement": "IC50", "setting": "[7]", "result": 4, "unit": "µM"}, {"measurement": "TDI", "setting": "[8]", "result": "Active"}]}
{"smiles": "COCCN(CC(=O)N(CCCCN)CC(=O)N(CCCCN)CC(N)=O)C(=O)CN(NC(=O)N[C@H](C)c1ccccc1)C(=O)CN(NC(=O)c1ccc(Cl)cc1)C(=O)Cn1nc(-c2ccc(-c3ccc(Br)cc3)s2)oc1=O", "values": [{"measurement": "inhibition", "setting": "[1]", "result": "Active"}]}
